Measurements from PubChem BioAssay (NCI).
“And” between values parts separate entries of the source, which are not always exact repeats. Identical values can stand only once.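 In this assay, cells in 96-well plates receive the compound at five concentrations for 48 hours. Endpoints are linearly interpolated between the surrounding concentrations. Abbreviation: GI50, concentration required for 50% inhibition of growth. TGI: concentration producing complete growth inhibition.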

Tests used:
Assay in all cases: NCI tumour cell line growth inhibition, 48 h
[1] = system: T-47D breast
[2] = system: K-562 leukemia
[3] = system: U251 CNS
[4] = system: LOX IMVI melanoma
[5] = system: BT-549 breast
[6] = system: NCI-H23 lung
[7] = system: CCRF-CEM leukemia
[8] = system: UACC-257 melanoma
[9] = system: SN12C renal
[10] = system: HCT-116 colon
[11] = system: SF-295 CNS
[12] = system: UACC-62 melanoma
[13] = system: HS 578T breast
[14] = system: OVCAR-4 ovarian
[15] = system: M14 melanoma
[16] = system: RXF 393 renal
[17] = system: NCI-H522 lung
[18] = system: SF-539 CNS
[19] = system: MALME-3M melanoma
[20] = system: SW-620 colon
[21] = system: TK-10 renal
[22] = system: SR leukemia
[23] = system: IGROV1 ovarian
[24] = system: PC-3 prostate
[25] = system: OVCAR-8 ovarian
[26] = system: MOLT-4 leukemia
[27] = system: NCI-H226 lung
[28] = system: MCF7 breast
[29] = system: HT29 colon
[30] = system: HOP-62 NSCLC
[31] = system: SK-OV-3 ovarian
[32] = system: SF-268 CNS
[33] = system: SK-MEL-2 melanoma
[34] = system: MDA-MB-435
[35] = system: COLO 205 colon
[36] = system: HOP-92 NSCLC
[37] = system: DU-145 prostate
[38] = system: NCI-H460 lung
[39] = system: UO-31 renal
[40] = system: KM12 colon
[41] = system: SNB-75 CNS
[42] = system: SK-MEL-5 melanoma
[43] = system: OVCAR-3 ovarian
[44] = system: RPMI-8226 leukemia
[45] = system: 786-0 renal
[46] = system: HCT-15 colon
[47] = system: MDA-MB-231 breast
[48] = system: HCC-2998 colon
[49] = system: A498 renal
[50] = system: OVCAR-5 ovarian
[51] = system: SNB-19 CNS
[52] = system: HL-60(TB) leukemia
[53] = system: CAKI-1 renal
[54] = system: SK-MEL-28 melanoma
[55] = system: NCI/ADR-RES ovarian
[56] = system: ACHN renal
[57] = system: EKVX NSCLC
[58] = system: A549 NSCLC

Question: What does the source list for `COc1cc2ncnc(Oc3cccc(NC(=O)Nc4cc(C(C)(C)C(F)(F)F)on4)c3)c2cc1OC`?
Answer: GI50 [1]: 1960 nM and 1670 nM; TGI [1]: 11700 nM and > 10000 nM; GI50 [2]: 15.3 nM and 14.6 nM; TGI [2]: 25900 nM and > 10000 nM; GI50 [3]: 2980 nM and 4090 nM; TGI [3]: 14100 nM and > 10000 nM; GI50 [4]: 319 nM and 421 nM; TGI [4]: 1540 nM and 1810 nM; GI50 [5]: 2400 nM and 3890 nM; TGI [5]: 8780 nM and > 10000 nM; GI50 [6]: 1280 nM and 1430 nM; TGI [6]: 11700 nM and > 10000 nM; GI50 [7]: 3060 nM and 3260 nM; TGI [7]: > 100000 nM; GI50 [8]: 132 nM and 235 nM; TGI [8]: 1080 nM and 3580 nM; GI50 [9]: 1610 nM and 1690 nM; TGI [9]: 11900 nM and > 10000 nM; GI50 [10]: 618 nM and 843 nM; TGI [10]: 11000 nM and > 10000 nM; GI50 [11]: 2910 nM and 2980 nM; TGI [11]: 13100 nM and > 10000 nM; GI50 [12]: 62.8 nM and 97.8 nM; TGI [12]: 1590 nM and 1340 nM; GI50 [13]: 1770 nM and 1470 nM; TGI [13]: 10200 nM and > 7230 nM; GI50 [14]: 2150 nM and 2800 nM; TGI [14]: > 100000 nM; GI50 [15]: 105 nM and 180 nM; TGI [15]: 1470 nM and 1910 nM; GI50 [16]: 2160 nM and 2680 nM; TGI [16]: 8140 nM and > 10000 nM; GI50 [17]: 370 nM and 407 nM; TGI [17]: 12600 nM and > 7060 nM; GI50 [18]: 2750 nM and 3140 nM; TGI [18]: 12900 nM and > 10000 nM; GI50 [19]: 64.5 nM and 85.1 nM; TGI [19]: 929 nM and 1170 nM; GI50 [20]: 1210 nM and 1600 nM; TGI [20]: 20800 nM and > 10000 nM; GI50 [21]: 948 nM and 820 nM; TGI [21]: 4670 nM and 4320 nM; GI50 [22]: 2950 nM and 2600 nM; TGI [22]: 11900 nM and > 10000 nM; GI50 [23]: 565 nM and 634 nM; TGI [23]: 4610 nM and 3690 nM; GI50 [24]: 2650 nM and 3680 nM; TGI [24]: 19400 nM and > 10000 nM; GI50 [25]: 2540 nM and 3090 nM; TGI [25]: 21500 nM and > 10000 nM; GI50 [26]: 2460 nM and 2060 nM; TGI [26]: > 29700 nM; GI50 [27]: 1130 nM and 1670 nM; TGI [27]: 33700 nM and > 10000 nM; GI50 [28]: 2790 nM and 3180 nM; TGI [28]: 15000 nM and > 10000 nM; GI50 [29]: 197 nM and 215 nM; TGI [29]: 6900 nM and > 10000 nM; GI50 [30]: 2450 nM and 2530 nM; TGI [30]: 16800 nM and > 10000 nM; GI50 [31]: 612 nM and 962 nM; TGI [31]: 3520 nM and 4820 nM; GI50 [32]: 2590 nM and 2690 nM; TGI [32]: 17400 nM and > 10000 nM; GI50 [33]: 443 nM and 565 nM; TGI [33]: 2260 nM and 3060 nM; GI50 [34]: 335 nM and 484 nM; TGI [34]: 5740 nM and > 10000 nM; GI50 [35]: 103 nM and 153 nM; TGI [35]: 5710 nM and > 5570 nM; GI50 [36]: 571 nM and 1130 nM; TGI [36]: 3410 nM and 5290 nM; GI50 [37]: 3310 nM and 3840 nM; TGI [37]: > 58500 nM; GI50 [38]: 2200 nM and 3280 nM; TGI [38]: 13900 nM and > 10000 nM; GI50 [39]: 552 nM and 788 nM; TGI [39]: 10100 nM and > 7680 nM; GI50 [40]: 3400 nM and 5280 nM; TGI [40]: 14000 nM and > 10000 nM; GI50 [41]: 2790 nM and 6270 nM; TGI [41]: 13500 nM and > 10000 nM; GI50 [42]: 1300 nM and 1450 nM; TGI [42]: 3010 nM and 3670 nM; GI50 [43]: 2660 nM and 3620 nM; TGI [43]: 16500 nM and > 10000 nM; GI50 [44]: 2600 nM and 2930 nM; TGI [44]: 11300 nM and > 10000 nM; GI50 [45]: 2580 nM and 4440 nM; TGI [45]: 14700 nM and > 10000 nM; GI50 [46]: 2160 nM and 2670 nM; TGI [46]: 12500 nM and > 10000 nM; GI50 [47]: 1030 nM and 571 nM; TGI [47]: 4440 nM and 7300 nM; GI50 [48]: 2290 nM and 3280 nM; TGI [48]: 14900 nM and > 10000 nM; GI50 [49]: 322 nM and 1050 nM; TGI [49]: 1360 nM and 3620 nM; GI50 [50]: 1100 nM and 1010 nM; TGI [50]: 10500 nM and > 10000 nM; GI50 [51]: 4500 nM and 4990 nM; TGI [51]: > 100000 nM; GI50 [52]: 2700 nM and 816 nM; TGI [52]: > 28500 nM; GI50 [53]: 1060 nM and 1440 nM; TGI [53]: > 43000 nM; GI50 [54]: 179 nM and 201 nM; TGI [54]: 8030 nM and 3580 nM; GI50 [55]: 2990 nM and 2860 nM; TGI [55]: 24600 nM and > 10000 nM; GI50 [56]: 438 nM and 598 nM; TGI [56]: 12900 nM and > 10000 nM; GI50 [57]: 1520 nM; TGI [57]: > 10000 nM; GI50 [58]: 1900 nM and 2740 nM; TGI [58]: 40800 nM and > 10000 nM
